Values after ≈ are worked out from the molar mass of the structure shown. Where two headings read alike, the source gives them in different places. Positions of bridges follow the written chain, without caps; N, C: chain ends. Non-standard residues stand in square brackets, D forms with d. Residues, ends and D or L forms follow the SMILES beside them. dPhe(4-CF3) = N[C@H](Cc1ccc(C(F)(F)F)cc1)C(=O)O; dTrp(6-F) = N[C@H](Cc1c[nH]c2cc(F)ccc12)C(=O)O; Lys(N3) = [N-]=[N+]=NCCCC[C@H](N)C(=O)O; R8 = C=CCCCCCC[C@@](C)(N)C(=O)O; Cba = N[C@@H](CC1CCC1)C(=O)O; R5 = C=CCCC[C@@](C)(N)C(=O)O; S5 = C=CCCC[C@](C)(N)C(=O)O; βAla = NCCC(=O)O
Tests used:
[1] = system: Jump-In T-REx CHO-K1 BLA cells; experiment: cells; assay type: cell-based
[2] = Solubility assay (kinetic solubility, PBS pH 7); assay type: physicochemical; settings: for solubility kinetic: pH 7, aqueous buffer, kinetic from dmso stock, read-out: Solubility
In short: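 Reference standards were made by diluting the 10 mM stock to 100 µM in acetonitrile:methanol:DMSO 10:80:10. Solubility in µM was calculated as the sample peak area divided by the standard peak area, multiplied by the standard concentration.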

physchem [3] = experiment: physchem
[4] = Experimental LogD (partition coefficient); settings: for logD: not stated, Partition Coeff LogD
HCT116 cells = experiment: Lactate dehydrogenase (LDH) release assay; assay type: cell-based
In short: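 Membrane damage measured as lactate dehydrogenase release (CytoTox-ONE kit) from p53-responsive β-lactamase reporter HCT116 cells plated at 8000 per well. Final DMSO 0.5%; geometric mean reported from a minimum of three biological replicates.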

Ca Ski cell line = system: Ca Ski cell line
In short: (§1)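 Compound dilution series (10 points, 3-fold, 10 mM top stock in DMSO) tested on overnight-plated Ca Ski cells in RPMI1640/10% FBS and on blasticidin-selected p53RE-bla HCT-116 cells in McCoy's 5A; read-out was CellTiter-Glo 2.0 luminescence after room-temperature equilibration.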

[5] = system: CellSensor p53RE-bla HCT-116 Cell Line
In short: as §1

physchem [6] = experiment: physchem; remark: listed apart in the source
physchem [7] = experiment: physchem; remark: listed apart in the source
[8] = 0% FBS 4Hr, read-out: TETCHO: Counterscreen EC50
[9] = 10% FBS 16Hr, read-out: TETCHO: Counterscreen EC50
[10] = read-out: Cell Proliferation assay EC50, Ca-Ski, p53 Mut, Ca-Ski
[11] = read-out: Cell Proliferation assay EC50, HCT116, p53 WT, HCT116
[12] = 4 hours, 0% serum, read-out: TETCHO Counterscreen EC50
[13] = read-out: Proliferation EC50 Ca Ski (Off-target), Ca Ski
[14] = read-out: Proliferation EC50 HCT116 (On-target), HCT116

SMILES | TETCHO: Counterscreen % Effect ([1]; 0% FBS 4Hr) | EC50 [1, 8] | solubility kinetic ([2]; pH 7, PBS) | logD [4] | LDH: Cytotoxicity assay % Effect (HCT116 cells; 0% FBS 4Hr) | LDH: Cytotoxicity assay % Effect (HCT116 cells; 10% FBS 16Hr) | TETCHO: Counterscreen % Effect ([1]; 10% FBS 16Hr) | EC50 [1, 9] | EC50 (Ca Ski cell line; [10]) | EC50 [5, 11] | EPSA (physchem [7]) | other results
CC(=O)N[C@@H](CC(C)C)C(=O)N[C@H](C(=O)N[C@@H](Cc1ccccc1)C(=O)N[C@]1(C)CCCCCCC=CCCC[C@@](C)(C(=O)N[C@@H](CO)C(=O)N[C@@H](C)C(=O)N[C@@H](C)C(N)=O)NC(=O)[C@@H](CC2CCC2)NC(=O)[C@H](CC(C)C)NC(=O)[C@H](CCC(N)=O)NC(=O)[C@H](Cc2c[nH]c3ccccc23)NC(=O)[C@H](Cc2ccc(O)cc2)NC(=O)[C@H](CCC(=O)O)NC1=O)[C@@H](C)O [MP-009] | 4.797% | > 50.6 µM | 79.3 µM (≈ 142 µg/mL) | 2.7 | – | – | – | – | – | – | – | TETCHO: Counterscreen % Effect ([1]; 0% FBS 16Hr): -1.31%; EPSA (physchem [3]): 204 A^2
CC(=O)N[C@@H](CCCCN=[N+]=[N-])C(=O)NCCC(=O)N[C@@H](CC(N)=O)C(=O)N[C@H](C(=O)N[C@@H](Cc1ccccc1)C(=O)N[C@]1(C)CCCCCCC=CCCC[C@@](C)(C(=O)N[C@@H](CC(N)=O)C(=O)N[C@@H](CC(N)=O)C(=O)N[C@@H](CC(N)=O)C(N)=O)NC(=O)[C@H](CC2CCC2)NC(=O)[C@H](CCC(N)=O)NC(=O)[C@H](CC(N)=O)NC(=O)[C@H](Cc2c[nH]c3ccccc23)NC(=O)[C@H](Cc2ccc(O)cc2)NC(=O)[C@H](CC(N)=O)NC1=O)[C@@H](C)O [MP-359, azide-ATSP-7041 (L1N, E5N, A8N, S12N, A13N, A14N)] (Ac-[Lys(N3)][βAla]NTF[R8]NYWNQ[Cba][S5]NNN-NH2; staple 6-13) | 8.184% | > 50.6 µM | 53.7 µM (≈ 113 µg/mL) | 2.12 | – | – | – | – | – | – | – | LDH: Cytotoxicity assay: % Effect (HCT116 cells; 0% FBS 4Hr): -2.842%; EC50 (Ca Ski cell line; read-out: Cell Proliferation assay EC50, p53 Mut, Ca-Ski): > 49.8 µM; EC50 ([5]; read-out: Cell Proliferation assay EC50, p53 WT, HCT116): 27.1 µM; EPSA (physchem [6]): 238 A^2
CC(=O)N[C@@H](C(=O)N[C@H](C)C(=O)N[C@H](Cc1c[nH]c2cc(F)ccc12)C(=O)N[C@H](Cc1ccc(O)cc1)C(=O)N[C@H](C)C(=O)N[C@]1(C)CCCC=CCCC[C@](C)(C(=O)N[C@H](CC(C)C)C(=O)N[C@H](CO)C(=O)N[C@H](C)C(=O)N[C@H](C)C(=O)N[C@H](C)C(=O)N[C@H](C)C(=O)N[C@H](C)C(=O)N[C@H](C)C(=O)N[C@H](C)C(=O)N[C@H](C)C(=O)N[C@H](C)C(N)=O)NC(=O)[C@@H](CCC(N)=O)NC(=O)[C@@H](CCC(=O)O)NC(=O)[C@@H](Cc2ccc(C(F)(F)F)cc2)NC1=O)[C@H](C)O [MP-1230] (Ac-[dT][dA][dTrp(6-F)][dY][dA][R5][dPhe(4-CF3)][dE][dQ][R5][dL][dS][dA][dA][dA][dA][dA][dA][dA][dA][dA]-NH2; staple 6-10) | 16.32% | > 50.4 µM | 16 µM (≈ 35.7 µg/mL) | – | 4.322% | -2.735% | -1.934% | > 50.4 µM | > 49.8 µM | 21.4 µM | 190 A^2 | –
CC(=O)N[C@@H](CCCCN=[N+]=[N-])C(=O)NCCC(=O)N[C@@H](CC(C)C)C(=O)N[C@H](C(=O)N[C@@H](Cc1ccccc1)C(=O)N[C@]1(C)CCCCCCC=CCCC[C@@](C)(C(=O)N[C@@H](CO)C(=O)N[C@@H](C)C(=O)N[C@@H](C)C(N)=O)NC(=O)[C@H](CC2CCC2)NC(=O)[C@H](CCC(N)=O)NC(=O)[C@H](C)NC(=O)[C@H](Cc2c[nH]c3ccccc23)NC(=O)[C@H](Cc2ccc(O)cc2)NC(=O)[C@H](Cc2c[nH]c3ccccc23)NC1=O)[C@@H](C)O [MP-185] (Ac-[Lys(N3)][βAla]LTF[R8]WYWAQ[Cba][S5]SAA-NH2; staple 6-13) | 4.64% | > 50 µM | 2 µM (≈ 4.05 µg/mL) | 4 | – | – | – | – | – | – | – | TETCHO: Counterscreen % Effect ([1]; 0% FBS 16Hr): 9.8%; EC50 (Ca Ski cell line; 72 h): > 49.8 µM; EC50 ([5]; 72 h): 1.97 µM; EPSA (physchem [3]): 226 A^2
CC(=O)N[C@@H](C(=O)N[C@H](C)C(=O)N[C@H](Cc1c[nH]c2cc(F)ccc12)C(=O)N[C@H](Cc1ccc(O)cc1)C(=O)N[C@H](C)C(=O)N[C@]1(C)CCCC=CCCC[C@](C)(C(=O)N[C@H](CC(C)C)C(=O)N[C@H](CO)C(=O)N[C@H](C)C(=O)N[C@H](C)C(=O)N[C@H](C)C(=O)N[C@H](C)C(=O)N[C@H](C)C(=O)N[C@H](C)C(N)=O)NC(=O)[C@@H](CCC(N)=O)NC(=O)[C@@H](CCC(=O)O)NC(=O)[C@@H](Cc2ccc(C(F)(F)F)cc2)NC1=O)[C@H](C)O [MP-042] (Ac-[dT][dA][dTrp(6-F)][dY][dA][R5][dPhe(4-CF3)][dE][dQ][R5][dL][dS][dA][dA][dA][dA][dA][dA]-NH2; staple 6-10) | 12.4% | > 50.4 µM | – | – | 8.154% | 15.87% | 2.411% | > 50.4 µM | 32 µM | 4.24 µM | – | EC50 [1, 12]: > 50 µM; EC50 (Ca Ski cell line; [13]): 31 µM; EC50 [5, 14]: 1.5 µM
CC(=O)N[C@@H](CCCCN=[N+]=[N-])C(=O)NCCC(=O)N[C@@H](CC(C)C)C(=O)N[C@H](C(=O)N[C@@H](Cc1ccccc1)C(=O)N[C@]1(C)CCCCCCC=CCCC[C@@](C)(C(=O)N2CCC[C@@H]2C(=O)N2CCC[C@@H]2C(=O)N2CCC[C@@H]2C(=O)N2CCC[C@@H]2C(=O)N2CCC[C@@H]2C(=O)N2CCC[C@@H]2C(N)=O)NC(=O)[C@H](CC2CCC2)NC(=O)[C@H](CCC(N)=O)NC(=O)[C@H](C)NC(=O)[C@H](Cc2c[nH]c3ccccc23)NC(=O)[C@H](Cc2ccc(O)cc2)NC(=O)[C@H](CCC(=O)O)NC1=O)[C@@H](C)O [MP-896] | -4.745% | > 50.4 µM | – | – | – | – | -12.59% | > 50.4 µM | > 49.8 µM | – | – | LDH: Cytotoxicity assay: % Effect (HCT116 cells; 0% FBS 4Hr): -5.717%; LDH: Cytotoxicity assay: % Effect (HCT116 cells; 10% FBS 16Hr): 1.172%; Solubility [2]: P.B.; Solubility ([2]; pH 7, PBS): Poorly Behaved; Partition Coeff LogD [4]: Poorly Behaved
CC(=O)N[C@@H](C(=O)N[C@H](C)C(=O)N[C@H](Cc1c[nH]c2cc(F)ccc12)C(=O)N[C@H](Cc1ccc(O)cc1)C(=O)N[C@H](C)C(=O)N[C@]1(C)CCCC=CCCC[C@](C)(C(=O)N[C@H](CC(C)C)C(=O)N[C@H](CO)C(=O)N[C@H](C)C(=O)N[C@H](C)C(=O)N[C@H](C)C(N)=O)NC(=O)[C@@H](CCC(N)=O)NC(=O)[C@@H](CCC(=O)O)NC(=O)[C@@H](Cc2ccc(C(F)(F)F)cc2)NC1=O)[C@H](C)O [MP-0230] (Ac-[dT][dA][dTrp(6-F)][dY][dA][R5][dPhe(4-CF3)][dE][dQ][R5][dL][dS][dA][dA][dA]-NH2; staple 6-10) | 12.86% | > 50.4 µM | 140 µM (≈ 253 µg/mL) | – | – | – | -3.99% | > 50.4 µM | – | – | 190 A^2 | –
CC(=O)N[C@@H](C(=O)N[C@H](C)C(=O)N[C@H](Cc1c[nH]c2cc(F)ccc12)C(=O)N[C@H](Cc1ccc(O)cc1)C(=O)N[C@H](C)C(=O)N[C@]1(C)CCCC=CCCC[C@](C)(C(=O)N[C@H](CC(C)C)C(=O)N[C@H](CO)C(N)=O)NC(=O)[C@@H](CCC(N)=O)NC(=O)[C@@H](CCC(=O)O)NC(=O)[C@@H](Cc2ccc(C(F)(F)F)cc2)NC1=O)[C@H](C)O [MP-797] (Ac-[dT][dA][dTrp(6-F)][dY][dA][R5][dPhe(4-CF3)][dE][dQ][R5][dL][dS]-NH2; staple 6-10) | 17.03% | > 50.4 µM | – | – | 33.6% | 29.91% | -11.41% | > 50.4 µM | 30.4 µM | 9.09 µM | 198 A^2 | EC50 [1, 12]: > 50 µM; EC50 (Ca Ski cell line; [13]): 30.4 µM; EC50 [5, 14]: 9.1 µM

From paper PMC10786919, “Design-rules for stapled peptides with in vivo activity and their application to Mdm2/X antagonists” (Nature Communications, 2024)
